Source: patent publication US6130227A, “7-Substituted camptothecin derivatives and methods for inhibiting the growth of tumor cells therewith” (priority 1996, dated 2000)

Columns and labels:
[1] = system: NCI-H460 human lung tumor xenograft growing i.p.; assay: Survival of nude mice bearing i.p. NCI-H460 tumor xenograft; type: in vivo
Description: A preclinical efficacy study was designed to evaluate the antitumor activity of the compounds of the present invention in comparison with topotecan (a first generation camptothecin already in clinical trials) as reference drug. The human tumor line NCI-H460, a non small cell lung carcinoma, was chosen because of the high expression of topoisomerase I, the known target of camptothecin drugs. This tumor model is relatively resistant to in vivo treatment with conventional cytotoxic agents (e.g., doxorubicin, cisplatin). Tumor cells were injected i.p. into nude mice (2.5×10^6 cell/mouse) of about 10 weeks and 3 days later the drugs were injected in the peritoneal cavity (10 ml/kg b.w.) to allow a direct contact of the drugs with tumor cells. Both topotecan and the compound of formula (I) described in Example 1 below, were delivered q4dx4 times. This schedule has been reported as optimal for camptothecin drugs in other preclinical studies. Mice were observed daily for death. The antitumor activity of the drugs was expressed as T/C %, i.e. the ratio between the median survival time of the drug-treated mice (T) and survival of the control untreated mice (C)×100. Treated mice, dead before the first control mouse or shortly after treatment with reduced body weight, were considered dead for drug toxicity. Mice still alive over 100 days after tumor cell inoculum were considered as long-term survivors (LTS). […]

[2] = Antitumor activity by the oral route; type: in vivo
[3] = Experiment 1, 10 mg/kg i.p. q4d x 4
[4] = Experiment 1, 10 mg/kg i.p. q4d x 4, from day 3
[5] = Experiment 2, 10 mg/kg i.p. q4d x 4
[6] = Experiment 2, 10 mg/kg i.p. q4d x 4, from day 3
[7] = Experiment 2, 12 mg/kg i.p. q4d x 4
[8] = Experiment 2, 12 mg/kg i.p. q4d x 4, from day 3
[9] = Experiment 2, 14.4 mg/kg i.p. q4d x 4
[10] = Experiment 2, 14.4 mg/kg i.p. q4d x 4, from day 3
[11] = Experiment 1, 6.6 mg/kg i.p. q4d x 4

Structure (SMILES)	LTS (100 days) [1, 3]	No. of toxic/total no. mice [1, 3]	% T/C [1, 4]	LTS (100 days) [1, 5]	% T/C [1, 6]	LTS (100 days) [1, 7]	No. of toxic/total no. mice [1, 7]	% T/C [1, 8]	LTS (100 days) [1, 9]	% T/C [1, 10]	further results
CC[C@@]1(O)C(=O)OCc2c1cc1n(c2=O)Cc2cc3c(CN(C)C)c(O)ccc3nc2-1 [Topotecan, reference compound]	2/8	0/8	215%	1/7	261%	0/7	4/7	77%	0/7	77%	No. of toxic/total no. mice [1, 9]: 5/7
CC[C@@]1(O)C(=O)OCc2c1cc1n(c2=O)Cc2c-1nc1ccccc1c2C#N [Example 1, 20S-camptothecin-7-carbonitrile]	3/8	0/8	258%	1/7	233%	1/7	0/7	200%	2/7	277%	Activity by the oral route ([2]; oral): active; Activity compared with topotecan ([2]; oral CPT83 vs topotecan i.v. with optimal treatment schedule): more active than topotecan; LTS (100 days) [1, 11]: 2/8; No. of toxic/total no. mice [1, 11]: 0/8; % T/C ([1]; Experiment 1, 6.6 mg/kg i.p. q4d x 4, from day 3): 157%; No. of toxic/total no. mice [1, 5]: 0/7; No. of toxic/total no. mice ([1]; Experiment 2, 14.4 mg/kg i.p. q4d x 4, 14.4 mg/kg): 1/7; No. of toxic/total no. mice ([1]; Experiment 2, 14.4 mg/kg i.p. q4d x 4, listed as CPT83, 14.4 mg/kg): 1; Tolerability compared with topotecan ([1]; NCI-H460 tumor xenograft): better tolerability than topotecan; T/C % values ([1]; at all doses tested): higher than 200%; Drug efficacy compared with topotecan ([1]; experiment 1, slowly-growing tumor): superior to that of topotecan; Efficacy in terms of T/C % compared with topotecan ([1]; experiment 2, rapidly growing tumor): comparable to that of topotecan
